One data set deals with DT, TT, PT, FHA and 69K. The class given is physicochemical.
The format of data set [1] is physicochemical. The note with it: K2 10, 50, 250 or 500 μg/ml; Al—H 3 mg/ml; all strengths. As for the experimental part: Compound K2 is added to water at 4mg/ml, then 1M NaOH is added to ensure full solubilisation, with stirring for 15 minutes at room temperature. This material is added to a suspension of aluminium hydroxide adjuvant (Al—H) to give the desired final concentration. This mixture is shaken for 2 hours at ambient temperature to ensure full adsorption, and then histidine buffer components are added (10mM histidine buffer, pH 6.5).
Four different mixtures are prepared, giving a final K2 concentration of 10, 50, 250 or 500 μg/ml (to provide a 1, 5, 25 or 50 μg dose of K2 in a 100 μl dosage volume); the Al—H concentration is always 3 mg/ml. At all strengths >95% of compound K2 is adsorbed to the Al—H. The adsorbed adjuvant is referred to hereafter as “Al—H/K2”.

For the molecule `Cc1cc(OCCOCCOCCP(=O)(O)O)ccc1CCc1cnc2c(N)nc3cc(CCC(=O)O)ccc3c2c1` [K2, 3-(5-amino-2-(2-methyl-4-(2-(2-(2-phosphonoethoxy)ethoxy)ethoxy)phenethyl)benzo [f]-[1,7]naphthyridin-8-yl)propanoic acid], the “adsorption of all antigens” value in the data set on DT, TT, PT, FHA and 69K was “completely adsorbed”. For the same molecule, the “compound K2 adsorbed to the Al—H” value in data set [1] is greater than 95%.

The values are drawn from patent US10842868B2 (priority 2012, dated 2020).
